From ChEMBL document CHEMBL5625262, “Discovery and first-time disclosure of CVN766, an exquisitely selective orexin 1 receptor antagonist” (Bioorg Med Chem Lett, 2024)

Key:
[1] = Metabolic stability in rat liver microsomes assessed as intrinsic clearance; type: ADME, Microsome; conditions: read-out: CLH
[2] = Metabolic stability in human liver microsomes assessed as intrinsic clearance; type: ADME, Microsome; conditions: read-out: CLH
[3] = target: T1, Orexin receptor type 2 (Homo sapiens) (UniProt O43614); experiment: Antagonist activity at human Ox2R overexpressed in rat Chem-1 cells assessed as inhibition of orexin A induced calcium flux at 10 uM preincubated for 15 mins followed by orexin A addition by FLIPR analysis relative to control; type: functional, cell-based
T1 sequence (whole entry): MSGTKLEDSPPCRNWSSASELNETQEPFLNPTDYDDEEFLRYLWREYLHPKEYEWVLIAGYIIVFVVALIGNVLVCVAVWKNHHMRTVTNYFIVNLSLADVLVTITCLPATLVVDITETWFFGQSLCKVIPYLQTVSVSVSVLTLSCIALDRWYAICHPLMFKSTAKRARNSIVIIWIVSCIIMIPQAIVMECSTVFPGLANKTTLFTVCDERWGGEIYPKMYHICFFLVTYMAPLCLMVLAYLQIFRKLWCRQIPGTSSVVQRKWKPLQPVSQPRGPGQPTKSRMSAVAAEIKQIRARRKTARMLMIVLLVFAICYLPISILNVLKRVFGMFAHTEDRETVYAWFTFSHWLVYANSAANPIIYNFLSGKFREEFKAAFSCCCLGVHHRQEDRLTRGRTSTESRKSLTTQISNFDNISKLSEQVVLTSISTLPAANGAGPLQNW

[4] = target: T2, Orexin/Hypocretin receptor type 1 (Homo sapiens, UniProt O43613); experiment: Antagonist activity at human Ox1R overexpressed in rat Chem-1 cells assessed as inhibition of orexin A induced calcium flux preincubated for 15 mins followed by orexin A addition by FLIPR analysis; type: functional, cell-based
T2 sequence (O43613 whole entry): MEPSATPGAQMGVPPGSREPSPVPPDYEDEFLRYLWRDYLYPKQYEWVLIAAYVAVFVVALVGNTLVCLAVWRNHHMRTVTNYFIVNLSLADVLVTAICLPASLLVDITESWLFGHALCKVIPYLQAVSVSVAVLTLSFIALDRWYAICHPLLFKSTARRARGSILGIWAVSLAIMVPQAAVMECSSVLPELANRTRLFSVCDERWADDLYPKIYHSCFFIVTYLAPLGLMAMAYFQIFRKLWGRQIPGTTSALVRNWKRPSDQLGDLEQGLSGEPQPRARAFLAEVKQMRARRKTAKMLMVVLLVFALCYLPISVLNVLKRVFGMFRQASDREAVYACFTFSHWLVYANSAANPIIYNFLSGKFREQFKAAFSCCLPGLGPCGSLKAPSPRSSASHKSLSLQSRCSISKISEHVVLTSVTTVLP

[5] = Metabolic stability in mouse liver microsomes assessed as intrinsic clearance; type: ADME, Microsome; conditions: read-out: CLH
[6] = target: T2, Orexin/Hypocretin receptor type 1; experiment: Displacement of 3H-SB-674042 from human Ox1R expressed in CHO cell membranes by liquid scintillation counting method; parameters: species or system Membrane
[7] = Clearance in dog; type: ADME, Canis lupus familiaris; conditions: in vivo
[8] = Oral bioavailability in dog; type: ADME, organism-based, Canis lupus familiaris; conditions: in vivo
[9] = Volume of distribution in po or iv dosed Sprague-Dawley rat; type: ADME, organism-based; conditions: in vivo
[10] = Oral bioavailability in Sprague-Dawley rat; type: ADME, organism-based; conditions: in vivo
[11] = In vivo receptor occupancy at Ox1R in Sprague-Dawley rat at 3 mg/kg, po in presence of [3H]-SB-674042 measured for 8 hrs; type: ADME, organism-based
Orexin receptor type 2 [12] = target: T3, Orexin receptor type 2 (Homo sapiens, UniProt O43614); experiment: Binding affinity to Ox2R (unknown origin)
T3 sequence (O43614 whole entry): T1 sequence (whole entry)

[13] = Ratio of unbound drug concentration in brain to plasma of po and iv dosed Sprague-Dawley rat; type: ADME, organism-based
[14] = Selectivity ratio of pKi for displacement of 3H-SB-674042 from human Ox1R expressed in CHO cell membranes to pKi for Ox2R (unknown origin)
[15] = Tmax in Sprague-Dawley rat at 3 mg/kg, po measured for 8 hrs; type: ADME, organism-based; conditions: in vivo
[16] = target: T4, Orexin/Hypocretin receptor type 1 (Homo sapiens) (UniProt O43613); conditions: CHO, Membrane, filed as antagonist
T4 sequence (whole entry): T2 sequence (O43613 whole entry)

[17] = Ratio of drug concentration in brain to plasma of po and iv dosed Sprague-Dawley rat; type: ADME, organism-based
Orexin receptor type 2 [18] = target: T3, Orexin receptor type 2; experiment: Antagonist activity at human Ox2R overexpressed in rat Chem-1 cells assessed as inhibition of orexin A induced calcium flux preincubated for 15 mins followed by orexin A addition by FLIPR analysis; type: functional, cell-based

In the case of `Cc1ccc(-n2nccn2)c(C(=O)N[C@H]2CCC[C@@H]2Nc2cnc3ccccc3n2)c1`, the microsomal CLint [1] is reported as 335 µL/min/mg, the microsomal CLint [2] is reported as 24 µL/min/mg and the inhibition ([3]; filed as antagonist) is reported as 60%. It also gave an IC50 [4] of 16 nM and a microsomal CLint [5] of 442 µL/min/mg.
`C[C@]1(Nc2cnc(C(F)(F)F)cn2)CCC[C@@H]1NC(=O)c1ccccc1-n1nccn1` gave an inhibition [3] of 25.3% and an IC50 [4] of 6 nM.
With `Cc1nc(C(F)(F)F)cnc1N[C@H]1CCC[C@@H]1NC(=O)c1ccccc1-n1nccn1` the inhibition [3] was 22%, the IC50 [4] was 21 nM and the Ki [6] was 20.9 nM.
Molecule `CCc1nc(C(F)(F)F)cnc1N[C@H]1CCC[C@@H]1NC(=O)c1ncccc1-n1nccn1` [CVN-766] has a clearance [7] of 2.2 mL/min/kg, a microsomal CLint [1] of 13 µL/min/mg and a bioavailability [8] of 77%. It also gave a Vd [9] of 1.02 L/kg, a bioavailability [10] of 18% and an Occ [11] of 79.9%. The Ki (Orexin receptor type 2 [12]) was 12.9 µM, the “K(p,uu,brain)” value [13] was 0.77 and the microsomal CLint [2] was under 3 µL/min/mg. The Ratio pKi [14] was over 1000, the inhibition [3] was 37.5% and the Tmax [15] was 1 h. It also gave an IC50 [4] of 8 nM, a T1/2 [16] of 2.2 h and a microsomal CLint [5] of under 3 µL/min/mg. For the same molecule, the BPR [17] was 0.6 and the Ki [6] was 7.24 nM.
`O=C(N[C@H]1CCC[C@@H]1Nc1cnc(C(F)(F)F)cn1)c1ccccc1-n1nccn1` showed an inhibition [3] of 12% and a Ki [6] of 81.3 nM.
For `Cc1nc(C(F)(F)F)cnc1N[C@H]1CCC[C@@H]1NC(=O)c1ncccc1-n1nccn1`, the inhibition [3] was 11.4% and the IC50 [4] was 32 nM.
Molecule `Cc1ccc(-n2nccn2)c(C(=O)N2CCN(c3nc4cc(Cl)ccc4o3)CC[C@H]2C)c1` has a T1/2 [16] of 1.25 h.
With `CCc1nc(C(F)(F)F)cnc1N[C@@H]1CCC[C@H]1NC(=O)c1ncccc1-n1nccn1` the inhibition ([3]; filed as antagonist) was 71.4% and the IC50 [4] was 1230 nM.
In the case of `Cc1ccc(-n2nccn2)c(C(=O)N[C@H]2CCC[C@@H]2Nc2nc3ccc(F)cc3s2)c1`, the IC50 (Orexin receptor type 2 [18]) is reported as 2460 nM and the IC50 [4] is reported as 17 nM.
`CC(C)c1cnc(N[C@H]2CCC[C@@H]2NC(=O)c2ccccc2-n2nccn2)cn1` showed a microsomal CLint [1] of 119 µL/min/mg, a microsomal CLint [2] of 23 µL/min/mg and an inhibition [3] of 12%. It also gave a microsomal CLint [5] of 403 µL/min/mg.
Work on `CCc1nc(C(F)(F)F)cnc1N[C@H]1CCC[C@@H]1NC(=O)c1ccccc1-n1nccn1` yielded an inhibition [3] of 25.6%.
Work on `C[C@]1(Nc2cnc(C(F)(F)F)cn2)CCC[C@@H]1NC(=O)c1ncccc1-n1nccn1` yielded an inhibition [3] of 21.1%, an IC50 [4] of 16 nM and a Ki [6] of 18.2 nM. For the same molecule, the pKi ([6]; cho) was 7.74.
